Data from US20250163104A1, “MACROCYCLIC IMMUNOMODULATORS” (priority 2021, published 2025).
pIC50: −log10 of the molar value. Where a SMILES comes first, the peptide text is derived from it. Bridges are numbered along the chain shown (N, C = ends). [ ]: non-standard residue; d: D form. The star is where a group is joined. ξ: configuration not given here. Phe(4-COOH) = N[C@@H](Cc1ccc(C(=O)O)cc1)C(=O)O; Phe(4-tBu) = CC(C)(C)c1ccc(C[C@H](N)C(=O)O)cc1; Bip = N[C@@H](Cc1ccc(-c2ccccc2)cc1)C(=O)O; Phe(4-CN) = N#Cc1ccc(C[C@H](N)C(=O)O)cc1; Phe(3-Me) = Cc1cccc(C[C@H](N)C(=O)O)c1; Phe(4-F) = N[C@@H](Cc1ccc(F)cc1)C(=O)O; Val(3-OH) = CC(C)(O)[C@H](N)C(=O)O; Benzoyl(4-F) = O=C(c1ccc(F)cc1)*; 2Pal = N[C@@H](Cc1ccccn1)C(=O)O; 4Pal = N[C@@H](Cc1ccncc1)C(=O)O; 3Thi = N[C@@H](Cc1ccsc1)C(=O)O; Cha = N[C@@H](CC1CCCCC1)C(=O)O; Cit = NC(=O)NCCC[C@H](N)C(=O)O; Ile(3ξ) = CCC(C)[C@H](N)C(=O)O; Thr(3ξ) = CC(O)[C@H](N)C(=O)O; Carboxymethyl = O=C(O)C*; Orn = NCCC[C@H](N)C(=O)O; Pra = C#CC[C@H](N)C(=O)O; Dab = NCC[C@H](N)C(=O)O; Dap = NC[C@H](N)C(=O)O; Bn = c1ccc(C*)cc1; Propargyl = C#CC*

Biological target: T1, human PD-1 / PD-L1-Ig binding on Jurkat cell line over-expressing human PD-1 (Jurkat-PD-1) (Homo sapiens, UniProt Q15116)
T1 construct: expressed in transfected cells; host or cells: Jurkat
T1 sequence (Q15116 25-288): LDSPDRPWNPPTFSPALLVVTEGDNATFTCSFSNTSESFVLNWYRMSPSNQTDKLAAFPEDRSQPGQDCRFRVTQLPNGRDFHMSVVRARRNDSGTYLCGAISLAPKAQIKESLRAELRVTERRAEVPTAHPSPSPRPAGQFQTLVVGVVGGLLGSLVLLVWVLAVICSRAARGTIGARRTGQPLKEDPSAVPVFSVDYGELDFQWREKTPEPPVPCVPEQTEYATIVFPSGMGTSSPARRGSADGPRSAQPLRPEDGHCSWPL
Test: Jurkat-PD-1 Cell Binding High-Content Screening Assay (CBA)
Assay type: cell-based
Conditions: Jurkat HPD1_PDL1 IC50, Jurkat-PD-1 cells, PE-labeled PD-L1-Ig 20 nM final
In short: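 Jurkat-hPD-1 cells in DMEM with 10% fetal calf serum receive test compound and are held at 37° C for 2 h. PE-labeled PD-L1-Ig is added at 20 nM final and left for 1 hour. Cells are then fixed and Hoechst-stained, and binding is measured by imaging.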

SMILES | pIC50
CC(C)C[C@H]1NC(=O)[C@H](CCCN)NC(=O)[C@H](C(C)C)NC(=O)[C@H](Cc2ccc(-c3ccccc3)cc2)NC(=O)[C@H](C(C)C)NC(=O)[C@H](Cc2c[nH]c3ccccc23)NC(=O)[C@H](CC(=O)O)NC(=O)[C@H](Cc2ccc(OCC(=O)O)cc2)NC(=O)[C@H](CN)NC(=O)CSC[C@@H](C(=O)N[C@@H](C)C(N)=O)NC(=O)[C@H]([C@@H](C)O)NC(=O)[C@H](C(C)C)NC(=O)[C@H](CC2CCCCC2)NC(=O)[C@H](Cc2ccc(OCc3ccccc3)cc2)NC1=O [Compound 1531] ({CH2CO}-[Dap]Y(Carboxymethyl)DWV[Bip]V[Orn][dL]Y(Bn)[Cha]VTCA-NH2; thioether N-14) | 6.15

Same assay, conditions: Jurkat-PD-1 cells, PE-labeled PD-L1-Ig 20 nM final; read-out: Jurkat HPD1_PDL1 IC50

SMILES | pIC50
CC(=O)NCCCC[C@@H]1NC(=O)[C@H](C(C)C)NC(=O)[C@H](CC2CCCCC2)NC(=O)[C@H](CCN)NC(=O)[C@@H](CC(C)C)NC(=O)[C@H](CCN)NC(=O)[C@H](C(C)C)NC(=O)[C@H](Cc2ccc(-c3ccccc3)cc2)NC(=O)[C@H](C(C)C)NC(=O)[C@H](Cc2c[nH]c3ccccc23)NC(=O)[C@H](CC(=O)O)NC(=O)[C@H](Cc2ccc(OCC(=O)O)cc2)NC(=O)[C@H](Cc2ccsc2)NC(=O)CSC[C@@H](C(=O)N[C@@H](CCN)C(N)=O)NC1=O [Compound 2613] ({CH2CO}-[3Thi]Y(Carboxymethyl)DWV[Bip]V[Dab][dL][Dab][Cha]VK(Ac)C[Dab]-NH2; thioether N-14) | 7.96
CC(C)C[C@H]1NC(=O)[C@H](CCCN)NC(=O)[C@H](CCC(=O)O)NC(=O)[C@H](Cc2ccc(-c3ccccc3)cc2)NC(=O)[C@H](C(C)C)NC(=O)[C@H](Cc2ccccn2)NC(=O)[C@H](CC(=O)O)NC(=O)[C@H](Cc2ccc(OCC(=O)O)cc2)NC(=O)[C@H](CN)NC(=O)CSC[C@@H](C(=O)N[C@@H](C)C(N)=O)NC(=O)[C@H]([C@@H](C)O)NC(=O)[C@H](C(C)C)NC(=O)[C@H](CC2CCCCC2)NC(=O)[C@H](CCN)NC1=O [Compound 2154] ({CH2CO}-[Dap]Y(Carboxymethyl)D[2Pal]V[Bip]E[Orn][dL][Dab][Cha]VTCA-NH2; thioether N-14) | 7.55
C#CC[C@H](NC(=O)CNC(=O)[C@@H]1CSCC(=O)N[C@@H](CCN)C(=O)N[C@@H](Cc2ccc(OCC(=O)O)cc2)C(=O)N[C@@H](CC(=O)O)C(=O)N[C@@H](Cc2c[nH]c3ccccc23)C(=O)N[C@@H](C(C)C)C(=O)N[C@@H](Cc2ccc(-c3ccccc3)cc2)C(=O)N[C@@H](C(C)CC)C(=O)N[C@@H](CCCN)C(=O)N[C@H](CC(C)C)C(=O)N[C@@H](CCN)C(=O)N[C@@H](CC2CCCCC2)C(=O)N[C@@H](C(C)(C)O)C(=O)N[C@@H](CO)C(=O)N1)C(=O)O (stereo partly drawn) [Compound 2322] ({CH2CO}-[Dab]Y(Carboxymethyl)DWV[Bip][Ile(3ξ)][Orn][dL][Dab][Cha][Val(3-OH)]SCG[Pra]-OH; thioether N-14) | 7.11
CC(C)C[C@@H]1NC(=O)[C@H](Cc2c[nH]c3ccccc23)NC(=O)[C@H](CC(=O)O)NC(=O)[C@H](Cc2ccc(O)cc2)NC(=O)[C@H](Cc2ccccc2)NC(=O)CSC[C@@H](C(=O)NCC(N)=O)NC(=O)[C@H](CO)NC(=O)[C@H](C(C)C)NC(=O)[C@H](CC(C)C)NC(=O)[C@H](CCN)NC(=O)[C@@H](CC(C)C)NC(=O)[C@H](CCCN)NC(=O)[C@H](C(C)C)NC(=O)[C@H](Cc2ccc(-c3ccccc3)cc2)NC1=O [Compound 1073] ({CH2CO}-FYDWL[Bip]V[Orn][dL][Dab]LVSCG-NH2; thioether N-14) | 8.00
CC(C)C[C@H]1NC(=O)[C@H](CCCN)NC(=O)[C@H](CCCNC(N)=O)NC(=O)[C@H](Cc2ccc(-c3ccccc3)cc2)NC(=O)[C@H](C(C)C)NC(=O)[C@H](Cc2c[nH]c3ccccc23)NC(=O)[C@H](CC(=O)O)NC(=O)[C@H](Cc2ccc(C(C)(C)C)cc2)NC(=O)[C@H](CN)NC(=O)CSC[C@@H](C(=O)N[C@@H](C)C(N)=O)NC(=O)[C@H]([C@@H](C)O)NC(=O)[C@H](C(C)C)NC(=O)[C@H](CC2CCCCC2)NC(=O)[C@H](CCN)NC1=O [Compound 2106] ({CH2CO}-[Dap][Phe(4-tBu)]DWV[Bip][Cit][Orn][dL][Dab][Cha]VTCA-NH2; thioether N-14) | 7.03
CC[C@H](C)[C@@H]1NC(=O)[C@H](Cc2ccc(-c3ccccc3)cc2)NC(=O)[C@H](CC(C)C)NC(=O)[C@H](Cc2c[nH]c3ccccc23)NC(=O)[C@H](CC(=O)O)NC(=O)[C@H](Cc2ccc(O)cc2)NC(=O)[C@H](Cc2ccccc2)NC(=O)CSC[C@@H](C(=O)NCC(N)=O)NC(=O)[C@H](CO)NC(=O)[C@H](C(C)C)NC(=O)[C@H](CC(C)C)NC(=O)[C@H](CCN)NC(=O)[C@@H](CC(C)C)NC(=O)[C@H](CCCN)NC1=O [Compound 1230] ({CH2CO}-FYDWL[Bip]I[Orn][dL][Dab]LVSCG-NH2; thioether N-14) | 7.74
Cc1cccc(C[C@@H]2NC(=O)[C@H](CC(=O)O)NC(=O)[C@H](Cc3ccc(OCC(=O)O)cc3)NC(=O)[C@H](Cc3ccncc3)NC(=O)CSC[C@@H](C(=O)N[C@@H](CCN)C(N)=O)NC(=O)[C@H](CCC(=O)O)NC(=O)[C@H](C(C)(C)O)NC(=O)[C@H](CC3CCCCC3)NC(=O)[C@H](CCN)NC(=O)[C@@H](CC(C)C)NC(=O)[C@H](CCCN)NC(=O)[C@H](Cc3ccc(C(=O)O)cc3)NC(=O)[C@H](Cc3ccc(-c4ccccc4)cc3)NC(=O)[C@H](Cc3ccc(C(=O)O)cc3)NC2=O)c1 [Compound 2677] ({CH2CO}-[4Pal]Y(Carboxymethyl)D[Phe(3-Me)][Phe(4-COOH)][Bip][Phe(4-COOH)][Orn][dL][Dab][Cha][Val(3-OH)]EC[Dab]-NH2; thioether N-14) | 8.22
Cc1cccc(C[C@@H]2NC(=O)[C@H](CC(=O)O)NC(=O)[C@H](Cc3ccc(F)cc3)NC(=O)[C@H](C(C)O)NC(=O)CSC[C@@H](C(=O)N[C@@H](CCN)C(N)=O)NC(=O)[C@H](C(C)O)NC(=O)[C@H](C(C)(C)O)NC(=O)[C@H](CC3CCCCC3)NC(=O)[C@H](CCN)NC(=O)[C@@H](CC(C)C)NC(=O)[C@H](CCCN)NC(=O)[C@H](Cc3ccc(C(=O)O)cc3)NC(=O)[C@H](Cc3ccc(-c4ccccc4)cc3)NC(=O)[C@H](Cc3ccc(C(=O)O)cc3)NC2=O)c1 (stereo partly drawn) [Compound 2685] ({CH2CO}-[Thr(3ξ)][Phe(4-F)]D[Phe(3-Me)][Phe(4-COOH)][Bip][Phe(4-COOH)][Orn][dL][Dab][Cha][Val(3-OH)][Thr(3ξ)]C[Dab]-NH2; thioether N-14) | 8.22
Cc1cccc(C[C@@H]2NC(=O)[C@H](CC(=O)O)NC(=O)[C@H](Cc3ccc(OCC(=O)O)cc3)NC(=O)[C@H](CCCNC(=N)N)NC(=O)CSC[C@@H](C(N)=O)NC(=O)[C@H](CCCNC(=O)c3ccc(F)cc3)NC(=O)[C@H](C(C)C)NC(=O)[C@H](CC3CCCCC3)NC(=O)[C@H](CCN)NC(=O)[C@@H](CC(C)C)NC(=O)[C@H](CCCN)NC(=O)[C@H](Cc3ccc(OCC(=O)O)cc3)NC(=O)[C@H](Cc3ccc(-c4ccccc4)cc3)NC(=O)[C@H](Cc3ccc(O)cc3)NC2=O)c1 [Compound 2053] ({CH2CO}-RY(Carboxymethyl)D[Phe(3-Me)]Y[Bip]Y(Carboxymethyl)[Orn][dL][Dab][Cha]V[Orn](Benzoyl(4-F))C-NH2; thioether N-14) | 7.40
C#CCOc1ccc(C[C@@H]2NC(=O)[C@H](Cc3cccc(C)c3)NC(=O)[C@H](CC(=O)O)NC(=O)[C@H](Cc3ccc(OCC(=O)O)cc3)NC(=O)[C@H](CN)NC(=O)CSC[C@@H](C(=O)N[C@@H](CCN)C(N)=O)NC(=O)[C@H](CCC(=O)O)NC(=O)[C@H](C(C)C)NC(=O)[C@H](CC3CCCCC3)NC(=O)[C@H](CCN)NC(=O)[C@@H](CC(C)C)NC(=O)[C@H](CCCN)NC(=O)[C@H](Cc3ccc(OCC(=O)O)cc3)NC(=O)[C@H](Cc3ccc(-c4ccccc4)cc3)NC2=O)cc1 [Compound 1812] ({CH2CO}-[Dap]Y(Carboxymethyl)D[Phe(3-Me)]Y(Propargyl)[Bip]Y(Carboxymethyl)[Orn][dL][Dab][Cha]VEC[Dab]-NH2; thioether N-14) | 8.49
COc1ccc(C[C@@H]2NC(=O)[C@H](CCN)NC(=O)[C@@H](CC(C)C)NC(=O)[C@H](CCCN)NC(=O)[C@H](CCCNC(N)=O)NC(=O)[C@H](Cc3ccc(-c4ccccc4)cc3)NC(=O)[C@H](C(C)C)NC(=O)[C@H](Cc3c[nH]c4ccccc34)NC(=O)[C@H](CC(=O)O)NC(=O)[C@H](Cc3ccc(OCC(=O)O)cc3)NC(=O)[C@H](CN)NC(=O)CSC[C@@H](C(=O)N[C@@H](C)C(N)=O)NC(=O)[C@H]([C@@H](C)O)NC(=O)[C@H](C(C)C)NC2=O)cc1 [Compound 1351] ({CH2CO}-[Dap]Y(Carboxymethyl)DWV[Bip][Cit][Orn][dL][Dab]Y(Me)VTCA-NH2; thioether N-14) | 6.92
CCCC[C@H]1NC(=O)[C@H](CCCN)NC(=O)[C@H](CCCNC(N)=O)NC(=O)[C@H](Cc2ccc(-c3ccccc3)cc2)NC(=O)[C@H](C(C)C)NC(=O)[C@H](Cc2c[nH]c3ccccc23)NC(=O)[C@H](CC(=O)O)NC(=O)[C@H](Cc2ccncc2)NC(=O)[C@H](CN)NC(=O)CSC[C@@H](C(=O)N[C@@H](C)C(N)=O)NC(=O)[C@H]([C@@H](C)O)NC(=O)[C@H](C(C)C)NC(=O)[C@H](CC2CCCCC2)NC(=O)[C@H](CCN)NC1=O [Compound 1703] | 7.60
CC(C)C[C@H]1NC(=O)[C@H](CCCN)NC(=O)[C@H](CCC(=O)O)NC(=O)[C@H](Cc2ccc(-c3ccccc3)cc2)NC(=O)[C@H](C(C)C)NC(=O)[C@H](Cc2c[nH]c3ccccc23)NC(=O)[C@H](CC(=O)O)NC(=O)[C@H](Cc2ccc(C#N)cc2)NC(=O)[C@H](Cc2ccccc2)NC(=O)CSC[C@@H](C(=O)N[C@@H](C)C(N)=O)NC(=O)[C@H]([C@@H](C)O)NC(=O)[C@H](C(C)C)NC(=O)[C@H](CC2CCCCC2)NC(=O)[C@H](CCN)NC1=O [Compound 2186] ({CH2CO}-F[Phe(4-CN)]DWV[Bip]E[Orn][dL][Dab][Cha]VTCA-NH2; thioether N-14) | 7.34
